Counter-ions that a name gives are not always drawn.
Tests used:
[1] = biological target: T1, Cif (Pseudomonas aeruginosa (strain UCBPP-PA14), UniProt A0A0H2ZD27); experiment: Fluorescent-based Cif inhibitory assay (CMNGC); conditions: for IC50: CMNGC, average of triplicates
Source text: Cyano (6-methoxynaphthalen-2-yl) methyl glycidyl carbonate (CMNGC) was used as a fluorescent reporter substrate.
Reported IC50 values are the average of triplicates with at least two data points above and at least two below the IC50.

[2] = biological target: T1, Cif; experiment: Secondary screen (sextuplicate) with fluorogenic substrate CMNGC; format: biochemical; conditions: for % Inhibition, Mean ± SD / % Inhibition, plate 1 / % Inhibition, plate 2 / % Inhibition, plate 3 / % Inhibition, plate 4 / % Inhibition, plate 5 / % Inhibition, plate 6: secondary screen, 10 μM; for % Inhibition, Mean ± SD: mean of six plates; for % Inhibition, plate 1: plate number 1; for % Inhibition, plate 2: plate number 2; for % Inhibition, plate 3: plate number 3; for % Inhibition, plate 4: plate number 4; for % Inhibition, plate 5: plate number 5; for % Inhibition, plate 6: plate number 6;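 for all read-outs here: purified enzyme assay in 96-well plates, 200 µL volume, fluorescence recorded each minute across a 60 min reaction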
Procedure: All high throughput screening assays were performed using 96-well plates, a 200 μL reaction volume, and a fluorescent plate reader. […] The fluorescent signal was measured after allowing the enzyme reaction to proceed for 60 minutes. The secondary screen was performed using the same conditions as the primary screen, except that fluorescent readings were taken every minute for the 60-minute reaction.
Subsequently, the filtered primary hits were retested to validate the observed inhibitory effect.

[3] = biological target: T1, Cif; experiment: Primary high throughput screen with fluorogenic substrate CMNGC; format: biochemical; conditions: primary screen; test compounds at 10 μM, 1 μM Cif, 25 μM CMNGC, 60 minutes;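 note: fluorescence of 200 µL reactions in 96-well plates read on a plate reader, inhibitor at tenfold molar excess over Cif enzyme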
Procedure: All high throughput screening assays were performed using 96-well plates, a 200 μL reaction volume, and a fluorescent plate reader. […] The fluorescent signal was measured after allowing the enzyme reaction to proceed for 60 minutes.
A library of 1600 FDA-approved compounds was screened for Cif inhibitory activity.
The screen was performed with only a 10-fold stoichiometric excess of inhibitor over Cif enzyme.

[4] = read-out: % Inhibition, Mean ± SD
[5] = read-out: % Inhibition, plate 1
[6] = read-out: % Inhibition, plate 2
[7] = read-out: % Inhibition, plate 3
[8] = read-out: % Inhibition, plate 4
[9] = read-out: % Inhibition, plate 5
[10] = read-out: % Inhibition, plate 6

T1 sequence (A0A0H2ZD27 25-319 limits assumed): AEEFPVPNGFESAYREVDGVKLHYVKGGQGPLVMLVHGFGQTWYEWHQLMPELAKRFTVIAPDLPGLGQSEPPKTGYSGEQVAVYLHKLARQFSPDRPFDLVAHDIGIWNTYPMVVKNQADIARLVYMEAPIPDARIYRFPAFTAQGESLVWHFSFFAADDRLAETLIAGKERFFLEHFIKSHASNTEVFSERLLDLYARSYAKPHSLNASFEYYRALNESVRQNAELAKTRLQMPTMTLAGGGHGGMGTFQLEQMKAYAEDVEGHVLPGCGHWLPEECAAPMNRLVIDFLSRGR

Row | Molecule | IC50 ([1]; Table 17 (R6-R9 series)) | inhibition at 10 µM [2, 4] | inhibition at 10 µM [2, 5] | inhibition at 10 µM [2, 6] | inhibition at 10 µM [2, 7] | inhibition at 10 µM [2, 8] | inhibition at 10 µM [2, 9] | inhibition at 10 µM [2, 10] | inhibition at 10 µM [3] | also measured
1 | CCOC(=O)CC(=O)Nc1cc(Br)c(Oc2cccc(C(C)C)c2)c(Br)c1 [Compound 1g] | > 50 µM | – | – | – | – | – | – | – | – | Cif inhibitory activity at 50 μM [1]: fail to show inhibitory activity
2 | CCOC(=O)CC(=O)Nc1cc(Br)c(Oc2ccc(OC)c(C(C)C)c2)c(Br)c1 [Compound 1h] | > 50 µM | – | – | – | – | – | – | – | – | Cif inhibitory activity at 50 μM [1]: fail to show inhibitory activity
3 | CCOC(=O)CC(=O)Nc1cc(Cl)c(Oc2ccc(O)c(C(C)C)c2)c(Cl)c1 [Compound 1i] | 3.8 µM | – | – | – | – | – | – | – | – | –
4 | CCOC(=O)CC(=O)Nc1ccc(Oc2ccc(O)c(C(C)C)c2)c(Cl)c1 [Compound 1j] | 11.6 µM | – | – | – | – | – | – | – | – | –
5 | CCOC(=O)CC(=O)Nc1cc(Cl)c(Oc2ccc(O)cc2)c(Cl)c1 [Compound 1k] | > 50 µM | – | – | – | – | – | – | – | – | Cif inhibitory activity at 50 μM [1]: showed no inhibition
6 | CCOC(=O)CC(=O)Nc1cc(Cl)c(Oc2ccc(O)c(Br)c2)c(Cl)c1 [Compound 1l] | 4.9 µM | – | – | – | – | – | – | – | – | –
7 | CCOC(=O)CC(=O)Nc1cc(Cl)c(Oc2ccc(O)c(I)c2)c(Cl)c1 [Compound 1m] | 3.8 µM | – | – | – | – | – | – | – | – | –
8 | CCOC(=O)CC(=O)Nc1cc(Cl)c(Oc2ccc(O)c(C(F)(F)F)c2)c(Cl)c1 [Compound 1n] | 3 µM | – | – | – | – | – | – | – | – | –
9 | C#Cc1cc(Oc2c(Cl)cc(NC(=O)CC(=O)OCC)cc2Cl)ccc1O [Compound 1p] | 2.9 µM | – | – | – | – | – | – | – | – | –
10 | CCOC(=O)CC(=O)Nc1cc(Cl)c(Oc2ccc(O)cc2Br)c(Cl)c1 [Compound 1q] | 29.3 µM | – | – | – | – | – | – | – | – | –
11 | CCC(=O)Nc1cc(Cl)c(Oc2ccc(O)c(-c3ccc(C(=O)O)cc3)c2)c(Cl)c1 [Compound 8b] | – | – | – | – | – | – | – | – | – | IC50 ([1]; Table 18 (biphenyl R series)): 10.5 µM
12 | CCC(=O)Nc1cc(Cl)c(Oc2ccc(O)c(-c3cccc(C(N)=O)c3)c2)c(Cl)c1 [Compound 8d] | – | – | – | – | – | – | – | – | – | IC50 ([1]; Table 18 (biphenyl R series)): 0.46 µM
13 | CCC(=O)Nc1cc(Cl)c(Oc2ccc(O)c(-c3ccc(C#N)cc3)c2)c(Cl)c1 [Compound 8e] | – | – | – | – | – | – | – | – | – | IC50 ([1]; Table 18 (biphenyl R series)): 11.9 µM
14 | CCC(=O)Nc1cc(Cl)c(Oc2ccc(O)c(-c3cccc(C#N)c3)c2)c(Cl)c1 [Compound 8f] | – | – | – | – | – | – | – | – | – | IC50 ([1]; Table 18 (biphenyl R series)): 0.58 µM
15 | CCC(=O)Nc1cc(Cl)c(Oc2ccc(O)c(-c3ccc(C(=O)NC)cc3)c2)c(Cl)c1 [Compound 8g] | – | – | – | – | – | – | – | – | – | IC50 ([1]; Table 18 (biphenyl R series)): 1.7 µM
16 | CCC(=O)Nc1cc(Cl)c(Oc2ccc(O)c(-c3ccc(NC(N)=O)cc3)c2)c(Cl)c1 [Compound 8i] | – | – | – | – | – | – | – | – | – | IC50 ([1]; Table 18 (biphenyl R series)): 0.29 µM
17 | CC(=O)[C@H]1CC[C@H]2[C@@H]3CC=C4C[C@@H](OC(=O)CCC(=O)O)CC[C@]4(C)[C@H]3CC[C@]12C [Pregnenolone succinate] | – | – | – | – | – | – | – | – | – | % Inhibition, Mean ± SD [2]: 12 ± 4%; % Inhibition, plate 1 [2]: 6%; % Inhibition, plate 2 [2]: 12%; % Inhibition, plate 3 [2]: 8%; % Inhibition, plate 4 [2]: 13%; % Inhibition, plate 5 [2]: 17%; % Inhibition, plate 6 [2]: 15%; % Inhibition [3]: 34%
18 | C=CC1=C(C)c2cc3[nH]c(cc4nc(cc5[nH]c(cc1n2)c(C)c5CCC(=O)O)C(CCC(=O)O)=C4C)c(C)c3C=C [Protoporphyrin ix] | – | 20 ± 7% | 12% | 16% | 21% | 18% | 28% | 29% | 46% | –
19 | N#C[C@@H]1C[C@@H]2C[C@@H]2N1C(=O)[C@@H](N)C12CC3CC(CC(O)(C3)C1)C2 [Saxagliptin] | – | 5 ± 4% | 5% | 0% | 6% | 6% | 11% | 3% | 35% | –
20 | CCCCCCCCCCCCCCOS(=O)(=O)O [Sodium tetradecyl sulfate] | – | 9 ± 4% | 9% | 4% | 12% | 12% | 13% | 5% | 78% | –
21 | Nc1ccc(S(=O)(=O)Nc2ncccn2)cc1 [Sulfadiazine] | – | 23 ± 4% | 23% | 24% | 24% | 26% | 28% | 15% | 42% | –
22 | C=C(NC(=O)C(=C)NC(=O)c1csc(C2=N[C@@H]3c4csc(n4)[C@H]4NC(=O)c5csc(n5)[C@H]([C@](C)(O)[C@@H](C)O)NC(=O)[C@H]5CSC(=N5)/C(=C/C)NC(=O)[C@H]([C@@H](C)O)NC(=O)c5csc(n5)[C@]3(CC2)NC(=O)[C@H](C)NC(=O)C(=C)NC(=O)[C@H](C)NC(=O)[C@H]([C@@H](C)CC)N[C@@H]2C=Cc3c([C@H](C)O)cc(nc3[C@H]2O)C(=O)O[C@@H]4C)n1)C(N)=O [Thiostrepton] | – | 28 ± 12% | 14% | 15% | 25% | 27% | 43% | 42% | 46% | –
23 | CCN(CC)CCOc1ccc2c(c1)C(=O)c1cc(OCCN(CC)CC)ccc1-2 [Tilorone] | – | 6 ± 4% | 4% | 5% | 5% | 11% | 10% | 0% | 36% | –
24 | NC[C@H]1O[C@H](O[C@H]2[C@H](O)[C@@H](O[C@H]3O[C@H](CO)[C@@H](O)[C@H](N)[C@H]3O)[C@H](N)C[C@@H]2N)[C@H](N)C[C@@H]1O [Tobramycin] | – | -8 ± 7% | -5% | -7% | -5% | -12% | 0% | -21% | 40% | –
25 | CN(C)CCOc1ccc(/C(=C(/CCCl)c2ccccc2)c2ccccc2)cc1 [Toremiphene citrate] | – | 10 ± 4% | 3% | 7% | 13% | 12% | 15% | 11% | 31% | –
26 | Nc1nc(N)c2nc(-c3ccccc3)c(N)nc2n1 [Triamterene] | – | 19 ± 5% | 15% | 17% | 18% | 21% | 28% | 16% | 35% | –
27 | CN(C)CCCN1c2ccccc2Sc2ccc(C(F)(F)F)cc21 [Triflupromazine hydrochloride] | – | 2 ± 6% | 4% | 10% | -2% | 1% | 8% | -6% | 33% | –
28 | O=C(CCCCCCC(=O)Nc1ccccc1)NO [Vorinostat] | – | 13 ± 6% | 5% | 13% | 8% | 14% | 18% | 22% | 35% | –
29 | CC(=O)CC(c1ccccc1)c1c(O)c2ccccc2oc1=O (centres unmarked) [Warfarin] | – | 15 ± 3% | 12% | 12% | 17% | 15% | 20% | 17% | 32% | –
30 | Candicidin | – | – | – | – | – | – | – | – | – | % Inhibition, Mean ± SD [2]: 15 ± 7%; % Inhibition, plate 1 [2]: 3%; % Inhibition, plate 2 [2]: 13%; % Inhibition, plate 3 [2]: 17%; % Inhibition, plate 4 [2]: 19%; % Inhibition, plate 5 [2]: 23%; % Inhibition, plate 6 [2]: 18%; % Inhibition [3]: 41%

Reference: US10322118B2, “Compounds and methods for inhibiting Cif virulence factor” (priority 2012, dated 2019)
